We go through one compound from PMC4153969, “A Novel Suspension Formulation Enhances Intestinal Absorption of Macromolecules Via Transient and Reversible Transport Mechanisms” (Pharmaceutical Research, 2014).

Series [1] can be described thus: in vivo. The method, then:
Octreotide acetate in saline was also injected subcutaneously to this animal model.
The octreotide immunoassay is based on a single-step, extraction-free, simultaneous assay procedure (Peninsula Laboratories, Division of Bachem, San Carlos, CA) designed to quantify octreotide concentrations. Briefly, octreotide standards (0.05–6.25 ng/mL) and rat plasma samples were diluted 1:10 with PBS, followed by addition of octreotide anti-rabbit antiserum antibody, biotinylated octreotide tracer, and assay buffer. Samples were washed and incubated with streptavidin–HRP. Optical density was read at a dual absorbance of 450 nm and 630 nm using an Enzyme-Linked Immunoassay (ELISA) reader (Multiskan EX Labsystems; Thermo Electron Corporation, Milford, MA) after addition of TMB solution and acidic stopping solution.
Results were expressed as mean ± SE. The area under plasma concentration–time profile measured from time zero to the last measurable plasma concentration was calculated according to the linear trapezoidal rule. Relative enteral bioavailability (rBA) following intra-jejunal administration of the OS formulation to rats was calculated compared with SC injection as follows: rBA%=AUCjejunum/AUCSC×DoseSC/Dosejejunum×100

The next series relates to Cynomolgus monkeys. Briefly: 9-month chronic toxicity study, daily oral enteric-coated capsules. Particulars: compared to the negative control group (olive oil). The class given is in vivo, Cynomolgus monkeys (Macaca fasicularis). The method, then: During the dosing period, animals were fasted for 8 to 10 h prior to dosing, and the first feeding was given 2 h after dosing. Monkeys were observed twice daily for mortality, morbidity, and clinical signs of adverse health effects and qualitative food consumption. Weekly examinations were performed on each animal before drug administration and before terminal sacrifice. Pre-dose body weights were recorded (week −1) and weekly thereafter. Blood samples (~5 ml) were collected for hematology and serum chemistry from the femoral vein before drug administration and from surviving animals prior to the terminal necropsy.
A complete ophthalmic examination was performed on each monkey by a Diplomat of the American College of Veterinary Ophthalmologist veterinarian before animal selection/group assignment (pretest) and again, prior to study termination.
Electrocardiograms (ECGs) were obtained twice pre-study and were analyzed by a veterinary cardiologist for the presence of significant abnormalities. ECGs were also obtained following the 1st dose and at the 3, 6, and 9 months of dosing. Standard ECGs (10 Lead) were recorded at 50 mm/s. Using Lead II (or another appropriate lead), the RR, PR, and QT intervals, and QRS duration were measured and heart rate was determined. The QT interval was calculated using Bazett’s Rule. […]

The nature of series [2]: in vivo. Conditions: cynomolgus monkey, plasma, sc, 0.1 mg, plasma octreotide, SC injection 0.1 mg daily. As to the method:
Enteric-coated capsules containing octreotide (20 mg)/OS or olive oil were administrated daily per os to fasted monkeys for 9 months, and swallowed with 10 mL water. In addition, a 1 mL ampule containing octreotide acetate at a concentration of 0.1 mg/mL (Sandostatin®, Novartis Pharmaceuticals, East Hanover, NJ) was administered by daily subcutaneous (SC) injection to another monkeys group. Oral administration of OS in rodent studies was limited due to the lack of properly enteric coated mini-gelatin capsules. Thus, the OS, containing fluorescent marker molecules (see below) or octreotide was enterally injected via implanted cannulas.
On Day 1 and after 3, 6 and 9 months, whole-blood samples (3.0 mL) were collected at routine intervals after completion of oral octreotide dosing. Plasma octreotide levels were determined by a validated liquid chromatographic spectrometric method (PPD Laboratories, Richmond, VA) as described elsewhere ([18]). The maximum plasma concentration (Cmax) and time to Cmax (Tmax) were derived from the data. The area under the curve (AUC) from zero to the last sample with a concentration ≥LOQ [AUC(0-t)] was calculated using the linear trapezoidal method. Analysis of plasma octreotide concentration vs. time was performed using SAS® for Windows® Version 9.3. The primary pharmacokinetic end point variables (Cmax and AUC0-t) were compared using analysis of variance (ANOVA) with treatment time (1, 180, 270-d) as a within-subject (repeated measures)-factor and sex as a between-subject factor.

On to `C[C@@H](O)[C@@H]1NC(=O)[C@H](CCCCN)NC(=O)[C@@H](Cc2c[nH]c3ccccc23)NC(=O)[C@H](Cc2ccccc2)NC(=O)[C@@H](NC(=O)[C@H](N)Cc2ccccc2)CSSC[C@@H](C(=O)N[C@H](CO)[C@@H](C)O)NC1=O` [octreotide acetate], for which the AUC(0-t) is 205 ng·h/mL in “in vivo [1]” (Sprague-Dawley, rat, plasma, sc, 0.172 mg/kg); 64.3 ± 5.3 ng·h/mL in the series “in vivo [2]” (female, Day 1, female monkeys); 60.8 ± 6.9 ng·h/mL in “in vivo [2]” (female, Day 180, female monkeys); 49.6 ± 3 ng·h/mL in “in vivo [2]” (female, Day 270, female monkeys); 41.7 ± 8.6 ng·h/mL in the series “in vivo [2]” (male, Day 1, male monkeys); 46.2 ± 5.4 ng·h/mL in “in vivo [2]” (male, Day 180, male monkeys). The same compound gave an AUC(0-t) in “in vivo [2]” (male, Day 270, male monkeys) of 51.3 ± 11.3 ng·h/mL. The “change in rat plasma peptide concentrations” value in “in vivo [1]” (enteral dosing in saline solution without OS, data not shown) is recorded as “negligible changes”. Further, in the series on Cynomolgus monkeys (both sexes), the “clinical observation: hair and skin” value was “increased incidence of sparse hair and red discoloured skin”. Also, the “clinical observation: feces” value in the series with Cynomolgus monkeys was “higher incidence of watery feces”.

Usually AUC(0-t) stands for exposure summed from dosing to a finite time, without extrapolation to infinity. Read a low AUC(0-t) as less exposure.
